Where “and” joins values, the source holds several entries; their conditions need not be identical. Identical values can stand only once. Entries after “also recorded” stand apart in the source; their conditions may differ. Like-named read-outs stand apart in the source and are kept apart here.

One may read the Vd/F as the volume of distribution divided by bioavailability. What is called AUC(0-t) is exposure summed from dosing to a finite time, without extrapolation to infinity. By Cmax is commonly meant the peak of the concentration-time curve. What is called Tmax is the time at which the peak concentration occurs. Broadly, the bioavailability is the share of a dose that reaches the circulation, judged against a reference dose that is usually intravenous.

The test system of one data set is 3T3 cell. Details: method as in de Oliveira et al. [2017]. The following applies: 3T3 cells; ref de Oliveira et al. [2017]; cited from earlier work.
The nature of data set [1]: Pharmacokinetic study after intravenous bolus administration in rats. In kind it is in vivo, male Wistar rats. Particulars: i.v. 10 mg/kg, male adult rats; for AUC(0-t) / half-life: male, Wistar, rat, plasma, iv. On the procedure:
(§1) Male Wistar rats (250–300 g) obtained from Central Vivarium of Federal University of Goiás (UFG) were housed under a 12‐h light/dark cycle (22°C–23°C), with free access to food and water. This in vivo pharmacokinetic study was conducted in accordance with Ethical Principles in Animal Research, adopted by International Guiding Principles for Biomedical Research Involving Animals and approved by the Institutional Ethics in Research Committee at the UFG (Protocol CEUA/UFG 085/17). All efforts were made to minimize animal suffering as preconized by regulatory institutions.
(§2) LQFM020 was prepared in physiological solution containing DMSO 1% at dose of 10 mg/kg for intravenous administration (i.v., bolus), and then, blood samples (0.5 mL) were collected at 0, 0.5, 1, 2, 3, 4, 5, 6, and 24 h in heparinized microtubes. Oral administration (p.o.) was performed at LQFM020 dose of 9, 18, or 36 mg/kg prepared in physiological solution with DMSO 1%. Blood samples (0.5 mL) were collected at 0, 0.5, 1, 2, 3, 4, 5, 6, and 24 h in heparinized microtubes. Plasma samples were obtained by blood centrifugation (3000 g, 10 min) and were stored at −20°C.
(§3) LQFM020 pharmacokinetic parameters were obtained by non‐compartmental model, including peak plasma concentration (Cmax) and time to reach it (Tmax), elimination half‐life (t1/2), elimination constant (Kel), total area under the curve of plasma concentration versus time (AUCT), apparent distribution volume (Vd), clearance (Cl), and mean residence time (MRT). These pharmacokinetic parameters were calculated by Phoenix Connect 1.3.1 software (Certara, Princeton, NJ, USA).

The target in another data set is CYP3A4 (Homo sapiens, UniProt P08684). As to the kind of experiment: CYP3A enzyme inhibition in vitro analysis (midazolam biotransformation, HPLC-PDA). In kind it is in vitro ADME. Particulars: LQFM020 100 μg/mL, midazolam 10 μg/mL, 37°C, 2 h. The method, then:
LQFM020 was evaluated for its ability to inhibit CYP3A4—the main subfamily responsible for drug metabolism in humans. […] Cold methanol was added after stirring these mixtures at 37°C for 2 h to stop the reaction and then centrifuged at 13,000 g for 10 min. The supernatant was filtered in Millex 0.22 μm pore and injected into HPLC system for the quantitation of midazolam. All samples were prepared in quintuplicate and analyzed by a HPLC‐PDA‐based method rigorously validated in our laboratory routine for the midazolam metabolites' quantification 1‐hydroxydazolam (1‐HMDZ) and 4‐hydroxydazolam (4‐HMDZ) (Ramirez De Oliveira et al. [2015]).

The conditions of data set [2]: mouse, in vivo, po; cited from earlier work.
Data set [3] in a line: Stability of LQFM020 in rat plasma (short-term, freeze-thaw, long-term). The class given is in vitro ADME. Particulars: n = 3. On the procedure: Bioanalytical method validation was conducted in accordance with the guideline of Brazilian Health Surveillance Agency (ANVISA) RDC 27/2012, analyzing several parameters, such as matrix effect, recovery, selectivity, linearity, precision and accuracy, and stabilities (short‐term, long‐term, and freezing/thawing cycles) (ANVISA [2012]).
Indeed, rat plasma concentrations (n = 3) of LQC and HQC presented a nonsignificant degradation below ±15% (RE), ranging from 89.2 ± 2.2% (short term) to 107.5 ± 1.8% (long term) at the end of storage condition times, as shown in Table 2.

Data set [4] is described as follows: Pharmacokinetic study after oral administration in rats. The class given is in vivo, male Wistar rats. On the procedure:
as §1, §2, §3
LQFM020 absolute oral bioavailability F(%) was obtained applying AUCT and dose (D) from p.o. and i.v. administration, according to the equation: F%=AUCp.o./AUCi.v.×Di.v./Dp.o.×100

On the set-up of data set [5]: method as in earlier work. Particulars: oral; ref Davies et al. [2000]; Dhondt et al. [2017]; Gong et al. [2012]; cited from earlier work.
The mark [6] stands for this setting: individual animals 1-3, 10 mg/kg.
The mark [7] stands for this setting: 10 mg/kg, individual animals 1-3.
Setting [8] is: Wistar, rat, plasma, oral 9 mg/kg, male adult rats, mean ± SEM, n = 3.
[9] abbreviates: Wistar, rat, plasma, oral 18 mg/kg, male adult rats, mean ± SEM, n = 3.
[10] abbreviates: Wistar, rat, plasma, oral 36 mg/kg, male adult rats, mean ± SEM, n = 3.

Chain of CYP3A4 (P08684 whole entry): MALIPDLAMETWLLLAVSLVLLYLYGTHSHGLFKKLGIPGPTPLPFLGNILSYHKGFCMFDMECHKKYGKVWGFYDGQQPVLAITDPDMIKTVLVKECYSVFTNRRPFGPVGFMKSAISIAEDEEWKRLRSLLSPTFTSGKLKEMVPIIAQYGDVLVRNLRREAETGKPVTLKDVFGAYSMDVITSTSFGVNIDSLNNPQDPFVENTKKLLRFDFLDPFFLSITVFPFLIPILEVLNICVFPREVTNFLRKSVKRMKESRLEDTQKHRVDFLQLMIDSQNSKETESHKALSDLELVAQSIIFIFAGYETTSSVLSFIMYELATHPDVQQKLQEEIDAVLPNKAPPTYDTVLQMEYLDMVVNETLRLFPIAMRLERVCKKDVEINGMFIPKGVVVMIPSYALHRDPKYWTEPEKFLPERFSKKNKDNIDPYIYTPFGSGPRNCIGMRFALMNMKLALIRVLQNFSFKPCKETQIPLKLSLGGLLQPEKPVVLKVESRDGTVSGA

Consider `Fc1ccc(-n2cc(-c3nn[nH]n3)cn2)cc1` [LQFM020, 5‐[1‐(4‐fluorophenyl)‐1H‐pyrazol‐4‐yl]‐2H‐tetrazole], for which the “concentrations reducing 3T3 cell viability” value with 3T3 cell is 350 to 1400 µM. Moreover, the AUCT in data set [1] (setting [6]) was 1064.89 µg·h/mL and 1314.07 µg·h/mL. Besides, the ClT/F was 12 mL/day/kg and 13 mL/day/kg and 10 mL/day/kg in data set [1] (setting [6]); 12 ± 0 mL/day/kg in data set [1] (mean ± SEM, n = 3). Further, the Vd/F in data set [1] (setting [6]) was 0.032 L/kg and 0.041 L/kg and 0.036 L/kg; in data set [1] (mean ± SEM, n = 3), 0.03 ± 0.00 L/kg; in data set [4] (setting [8]), 0.86 ± 0.4 L/kg; in data set [4] (setting [9]) it was 1.44 ± 0.36 L/kg; in data set [4] (setting [10]), 1.16 ± 0.26 L/kg. Further, the t1/2 in data set [1] (setting [6]) was 3.06 h and 3.26 h; in data set [1] (mean ± SEM, n = 3, 10 mg/kg) it was 3.05 ± 0.12 h. The AUC(0-t) came to 1230 µg·h/mL in data set [1] (setting [7]); 1220 ± 77.9 µg·h/mL in data set [1] (10 mg/kg, mean ± SEM, n = 3); 69.8 ± 5.33 µg·h/mL in data set [4] (setting [8]); 110 ± 17.1 µg·h/mL in data set [4] (setting [9]); 287 ± 82.4 µg·h/mL in data set [4] (setting [10]). Moreover, the half-life was 2.83 h in data set [1] (setting [7]); around 3 h in data set [1] (10 mg/kg, mean ± SEM, n = 3); 5.82 ± 2.35 h in data set [4] (Wistar, rat, plasma, oral 9 mg/kg, male adult rats, mean ± SEM, n = 3, read-out: t1/2 (converted)); 5.85 ± 0.96 h in data set [4] (Wistar, rat, plasma, oral 18 mg/kg, male adult rats, mean ± SEM, n = 3, read-out: t1/2 (converted)); 6.74 ± 2.47 h in data set [4] (Wistar, rat, plasma, oral 36 mg/kg, male adult rats, mean ± SEM, n = 3, read-out: t1/2 (converted)); around 6 h in data set [4] (male, Wistar, rat, plasma, oral administration, rats, overall, read-out: elimination half-time (t1/2) (converted)). In addition, the “inhibition of CYP3A4 (peak areas of midazolam metabolites 1-HMDZ and 4-HMDZ vs negative control)” value on CYP3A4 was “no significant effect; also recorded: absence of inhibition; also recorded: does not change the biotransformation”. Besides, the “orally well tolerated dose” value in data set [2] is recorded as at most 2000 mg/kg. Besides, the “Stability, Accuracy (RE) (Mean ± CV%)” value in data set [3] (freeze–thaw (3 cycles), nominal 0.75 μg/mL) was found to be 96.4 ± 2.6%; in data set [3] (freeze–thaw (3 cycles), nominal 15 μg/mL) it was 96.0 ± 5.3%; in data set [3] (long duration (30 days, −20°C), nominal 0.75 μg/mL), 102.1 ± 6.5%; in data set [3] (long duration (30 days, −20°C), nominal 15 μg/mL), 107.5 ± 1.8%; in data set [3] (short duration (RT, 4 h), nominal 0.75 μg/mL), 89.2 ± 2.2%; in data set [3] (short duration (RT, 4 h), nominal 15 μg/mL), 94.5 ± 5.2%. Also, the peak concentration (Cmax) came out at 16.6 ± 4.41 µg/mL in data set [4] (setting [8]), 26.6 ± 2.03 µg/mL in data set [4] (setting [9]) and 55.2 ± 21.1 µg/mL in data set [4] (setting [10]). Moreover, the Tmax in data set [4] (setting [8]) worked out at 1.66 ± 0.66 h; in data set [4] (setting [9]), 0.83 ± 0.17 h; in data set [4] (setting [10]) it was 1.67 ± 0.66 h. In addition, in data set [4] (male, Wistar, plasma, oral, rat, from AUC and dose of p.o. and i.v. (10 mg/kg) administration, read-out: absolute oral bioavailability F(%)), the bioavailability stood at 46%. The ClT worked out at 158 ± 14 mL/day/kg in data set [4] (oral 9 mg/kg, male adult rats, mean ± SEM, n = 3); 230 ± 29 mL/day/kg in data set [4] (oral 18 mg/kg, male adult rats, mean ± SEM, n = 3); 216 ± 86 mL/day/kg in data set [4] (oral 36 mg/kg, male adult rats, mean ± SEM, n = 3).

`Cc1ccc(-c2cc(C(F)(F)F)nn2-c2ccc(S(N)(=O)=O)cc2)cc1` [celecoxib]: in data set [5], the Tmax was 2 to 4 h.

The values are drawn from publication PMC11983664, “Preclinical Pharmacokinetic Assessment of a Promising Vasorelaxant, Analgesic, and Anti‐Inflammatory Prototype 5‐[1‐(4‐Fluorophenyl)‐1H‐pyrazol‐4‐yl]‐2H‐tetrazole (LQFM020) Through Selective Bioanalytical HPLC‐PDA‐Based Method” (Biomedical Chromatography, 2025).
